From publication PMC8342434, “Solubility of vitamin A in supercritical CO2: experimental study and thermodynamic modeling” (Scientific Reports, 2021)
Values after ≈ are worked out from the molar mass of the structure shown.

Test: Equilibrium solubility of vitamin A in supercritical CO2 (static cell, UV-VIS)
Type: physicochemical
Experimental: Figure 1 indicates the system used for measuring the equilibrium solubility. […] Consequently, the gas was liquefied through dropping the temperature to − 20 °C so that it was prepared for pumping function by means of pressure controlling instruments (TEBCO, Iran) with an uncertainty of ± 0.1 MPa.
After CO2 pumped into the inlet solvent stream, the methanol tank (as a co-solvent in this section) and modulator valve controlled the solvent concentration. The inlet solvent concentration should be regulated. Thus, it is an adjustable factor as function of solute content based on simultaneous data from experimental setup. The pressure of the circuit was taken into the collection container through altering amount of modulator on the injection tap. This includes a certain volume of solvent (CO2 and methanol). Providing the thermal equilibrium condition with the inner part of the oven in shorter time, this equilibrium spiral pipe can be utilized for efficient mixing of CO2 and modulators. The cell was put inside carefully (FG Model, BF400E, Iran) to keep the operating temperature (with ± 0.5 K).
Roughly before the start of the extraction, 500 mg of powder Retinol were put into the static cell with the volume of 10 mL and due to the pressure drop, downward flowrate (in line with weight force of the materials) was used. Eluding physical entrainment of the unextracted Vitamin A (Rich Retinol), the tops of the pressurized equilibrium cell were connected by means of the stainless-steel disks before SC-CO2 was distributed into the cell, its pressure was enhanced up to the anticipated pressure before it is moved through the equilibrium cell at operational conditions. In the present research, 60 min was estimated to achieve the state of equilibrium (in the cell).
In fact, the final sample (in the standard state) in two phases of gas (carbon dioxide) and liquid phase (solution containing methanol and vitamin A) It was stored in accumulation glass and entered the spectrophotometer. Finally, the solvent was used to clean the circuit.
As solubility values of Vitamin A were obtained in various conditions, they were noted by absorbency mensuration’s at λmax using a model 2100 UNICO UV–VIS spectrophotometer with 1000 nm Wavelength. The equilibrium mole fraction yA and equilibrium solubility, S(g/L) in SC-CO2 over the ranges of temperature and pressure obtained from below equation[21]:1 yA=nA/nA+nC where2 nA=CAg/L×VAL/MAg/mol 3 nC=VlL×ρg/L/MCg/mol where nA and nC are sample moles of vitamin A and solvent, CA is the concentration of vitamin A g/L in the accumulation glass calculated by the curve of calibration. The volumes of the accumulation vial are denoted by VAL and VlL is the sampling circuit. Furthermore, MA and MC are the molecular weights of Vitamin A and CO2, respectively. By combining the aforementioned, the subsequent relation is achieved (Eq. (4)).4 yA=CAg/L×VSL×MCg/mol/CAg/L×VAL×MCg/mol+VlL×ρg/L×MAg/mol
In order to obtain the g/L of Vitamin A in SC-CO2 […] was used[21].5 Sg/L=CAg/L×VAL/VlL

- Mole fraction (SC-CO2, 303 K, 90 bar): 2.18e-05
- Mole fraction (SC-CO2, 303 K, 115 bar): 2.92e-05
- Mole fraction (SC-CO2, 303 K, 130 bar): 3.58e-05
- Mole fraction (SC-CO2, 303 K, 140 bar): 4.12e-05
- Mole fraction (SC-CO2, 303 K, 155 bar): 5.29e-05
- Mole fraction (SC-CO2, 303 K, 175 bar): 6.01e-05
- Mole fraction (SC-CO2, 303 K, 185 bar): 6.25e-05
- Mole fraction (SC-CO2, 303 K, 195 bar): 7.21e-05
- Mole fraction (SC-CO2, 303 K, 220 bar): 7.96e-05
- Mole fraction (SC-CO2, 303 K, 230 bar): 8.19e-05
- Mole fraction (SC-CO2, 303 K, 245 bar): 8.32e-05
- Mole fraction (SC-CO2, 313 K, 100 bar): 1.68e-05
- Mole fraction (SC-CO2, 313 K, 120 bar): 3.62e-05
- Mole fraction (SC-CO2, 313 K, 130 bar): 5.41e-05
- Mole fraction (SC-CO2, 313 K, 140 bar): 5.25e-05
- Mole fraction (SC-CO2, 313 K, 155 bar): 6.63e-05
- Mole fraction (SC-CO2, 313 K, 170 bar): 8.13e-05
- Mole fraction (SC-CO2, 313 K, 200 bar): 0.000125
- Mole fraction (SC-CO2, 313 K, 235 bar): 0.000138
- Mole fraction (SC-CO2, 313 K, 245 bar): 0.000149
- Mole fraction (SC-CO2, 323 K, 110 bar): 2.68e-05
- Mole fraction (SC-CO2, 323 K, 135 bar): 5.24e-05
- Mole fraction (SC-CO2, 323 K, 180 bar): 0.00014
- Mole fraction (SC-CO2, 323 K, 195 bar): 0.000148
- Mole fraction (SC-CO2, 323 K, 205 bar): 0.00016
- Mole fraction (SC-CO2, 323 K, 235 bar): 0.000196
- cross-over pressure (SC-CO2, isotherms at 303, 313 and 323 K (Fig. 3)): 110 bar
- solubility of fat-soluble vitamin A in SC-CO2 (SC-CO2, under certain conditions): ~0.7 g/kg
- solubility thermodynamic at 60 min (supercritical CO2 in a 10 mL static equilibrium cell, organic solvent or mixture, thermodynamic from solid, SC-CO2, 303–323 K, 90–235 bar, minimum at 303 K, 90 bar, maximum at 323 K, 235 bar, read-out: equilibrium solubility S of Vitamin A in SC-CO2, span over all conditions): 96 to 1040 µg/mL (≈ 335 to 3620 µM)
SMILES: CC1=C(/C=C/C(C)=C/C=C/C(C)=C/CO)C(C)(C)CCC1 [vitamin A, Retinol]
